US10662477B2, “Biomarkers and methods to predict response to inhibitors and uses thereof” (Millennium Pharmaceuticals, Inc., priority 2012, dated 2020)
Where two headings read alike, the source gives them in different places.

Tests used:
NSCLC patients [1] = test: BATTLE clinical trial Erlotinib arm, progression-free survival by Erlotinib PLSR model group; format: in vivo, human
NSCLC patients [2] = test: BATTLE clinical trial Sorafenib arm, progression-free survival by Sorafenib PLSR model group; format: in vivo, human
Kidney cancer [3] = conditions: phase III clinical trial, cited from earlier work
Kidney cancer [4] = test: Sorafenib phase III clinical trial on Kidney cancer; format: in vivo, human; conditions: Sorafenib vs. placebo
tumor xenografts = test: Xenograft models of MLN4924 treatment, average plasma concentration needed for tumor stasis, sensitivity rank; format: in vivo, rats or mice; conditions: for C avg at stasis: average plasma concentration needed to reach tumor stasis; for Sensitivity Rank: rank of 1 is most sensitive, 16 is least sensitive
human melanoma tumors = test: Melanoma explants (human tumor xenografts) in mice treated with MLN4924, tumor growth; format: in vivo; conditions: subcutaneous treatment

C#Cc1cccc(Nc2ncnc3cc(OCCOC)c(OCCOC)cc23)c1 [Erlotinib, N-(3-ethynylphenyl)-6,7-bis(2-methoxyethoxy) quinazolin-4-amine]
PFS (NSCLC patients [1]; Erlotinib-resistant patients (Erlotinib PLSR signature), BATTLE Erlotinib arm): 1.84 month | median PFS (NSCLC patients [1]; Erlotinib-sensitive patient group (Erlotinib PLSR signature), BATTLE Erlotinib arm): 3.84 month | Hazard ratio (NSCLC patients [1]; Erlotinib-sensitive vs Erlotinib-resistant patient group, PFS, p-value 0.09): 0.43

CNC(=O)c1cc(Oc2ccc(NC(=O)Nc3ccc(Cl)c(C(F)(F)F)c3)cc2)ccn1 [Sorafenib]
median PFS survival (NSCLC patients [2]; marker-insensitive group (Sorafenib model), BATTLE Sorafenib arm): 1.87 months | median PFS survival (NSCLC patients [2]; marker-sensitive group (Sorafenib model), BATTLE Sorafenib arm): 4.53 months | PFS survival benefit (NSCLC patients [2]; marker-sensitive group vs marker-resistant group, BATTLE Sorafenib arm): 2.66 months | Hazard-ratio (NSCLC patients [2]; marker-sensitive vs marker-resistant group, PFS, p-value 0.006): 0.32 | median survival (Kidney cancer [3]; Sorafenib arm (placebo 84 days)): 167 days | median survival (Kidney cancer [3]; Sorafenib arm, days converted to months (placebo 2.80)): 5.57 months | PFS benefit (Kidney cancer [4]): 2.77 month

NS(=O)(=O)OC[C@@H]1C[C@@H](n2ccc3c(N[C@H]4CCc5ccccc54)ncnc32)C[C@@H]1O [MLN4924, ((1S,2S,4R)-4-{4-[(1S)-2,3-dihydro-1H-inden-1-ylamino]-7H-pyrrolo[2,3-d]pyrimidin-7-yl}-2-hydroxycyclopentyl)methyl sulphamate]
C avg at stasis (tumor xenografts; A375 xenograft, melanoma): 6.837 µg/mL | Sensitivity Rank (tumor xenografts; A375 xenograft): 7 | C avg at stasis (tumor xenografts; DLD-1 xenograft, colon adenocarcinoma): 17.476 µg/mL | Sensitivity Rank (tumor xenografts; DLD-1 xenograft): 16 | C avg at stasis (tumor xenografts; DU-145 xenograft, prostate cancer): 9.365 µg/mL | Sensitivity Rank (tumor xenografts; DU-145 xenograft): 11 | C avg at stasis (tumor xenografts; HCT116 (grown in mouse) xenograft, colorectal carcinoma): 1.983 µg/mL | Sensitivity Rank (tumor xenografts; HCT116 (grown in mouse) xenograft): 2 | C avg at stasis (tumor xenografts; HCT116 (grown in rat) xenograft, colorectal carcinoma): 1.490 µg/mL | Sensitivity Rank (tumor xenografts; HCT116 (grown in rat) xenograft): 1 | C avg at stasis (tumor xenografts; HL-60 xenograft, promyelocytic leukemia): 2.023 µg/mL | Sensitivity Rank (tumor xenografts; HL-60 xenograft): 3 | C avg at stasis (tumor xenografts; HT29 xenograft, colon adenocarcinoma): 7.171 µg/mL | Sensitivity Rank (tumor xenografts; HT29 xenograft): 9 | C avg at stasis (tumor xenografts; NCI-H69 xenograft, small cell lung cancer): 6.868 µg/mL | Sensitivity Rank (tumor xenografts; NCI-H69 xenograft): 8 | C avg at stasis (tumor xenografts; NCI-H82 xenograft, small cell lung cancer): 5.316 µg/mL | Sensitivity Rank (tumor xenografts; NCI-H82 xenograft): 5 | C avg at stasis (tumor xenografts; NCI-H322M xenograft, non-small cell lung carcinoma): 14.722 µg/mL | Sensitivity Rank (tumor xenografts; NCI-H322M xenograft): 14 | C avg at stasis (tumor xenografts; NCI-H460 xenograft, non-small cell lung carcinoma): 17.070 µg/mL | Sensitivity Rank (tumor xenografts; NCI-H460 xenograft): 15 | C avg at stasis (tumor xenografts; PC3 xenograft, prostate cancer): 5.968 µg/mL | Sensitivity Rank (tumor xenografts; PC3 xenograft): 6 | C avg at stasis (tumor xenografts; PHTX-02B xenograft, Breast cancer): 3.691 µg/mL | Sensitivity Rank (tumor xenografts; PHTX-02B xenograft): 4 | C avg at stasis (tumor xenografts; PHTX-50M xenograft, melanoma): 8.501 µg/mL | Sensitivity Rank (tumor xenografts; PHTX-50M xenograft): 10 | C avg at stasis (tumor xenografts; PHTX-51M xenograft, melanoma): 11.588 µg/mL | Sensitivity Rank (tumor xenografts; PHTX-51M xenograft): 13 | C avg at stasis (tumor xenografts; SKOV3 xenograft, ovarian carcinoma): 9.890 µg/mL | Sensitivity Rank (tumor xenografts; SKOV3 xenograft): 12 | Experimental Result with MLN4924 treatment (human melanoma tumors; melanoma explant 1, tumor growth in mice): Sensitive | Experimental Result with MLN4924 treatment (human melanoma tumors; melanoma explant 2, tumor growth in mice): Sensitive | Experimental Result with MLN4924 treatment (human melanoma tumors; melanoma explant 3, tumor growth in mice): Sensitive | Experimental Result with MLN4924 treatment (human melanoma tumors; melanoma explant 4, tumor growth in mice): Resistant | Experimental Result with MLN4924 treatment (human melanoma tumors; melanoma explant 5, tumor growth in mice): Resistant | Experimental Result with MLN4924 treatment (human melanoma tumors; melanoma explant 6, tumor growth in mice): Resistant | Experimental Result with MLN4924 treatment (human melanoma tumors; melanoma explant 7, tumor growth in mice): Resistant | Experimental Result with MLN4924 treatment (human melanoma tumors; melanoma explant 8, tumor growth in mice): Resistant | Experimental Result with MLN4924 treatment (human melanoma tumors; melanoma explant 9, tumor growth in mice): Resistant | Experimental Result with MLN4924 treatment (human melanoma tumors; melanoma explant 10, tumor growth in mice): Resistant
